Source: ChEMBL document CHEMBL3414563, “Rational design of partial agonists for the muscarinic m1 acetylcholine receptor” (J Med Chem, 2015)
The source made the active and inactive calls. The rule behind the calls is not given here.

biological target: T1, Muscarinic acetylcholine receptor M1 (Homo sapiens) (UniProt P11229); assay: Agonist activity at human muscarinic M1 acetylcholine receptor expressed in CHO cells assessed as increase in IP1 accumulation at 1 uM incubated for 30 mins by FRET based HTRF assay; assay type: functional, cell-based; conditions: not given
T1 sequence (whole entry): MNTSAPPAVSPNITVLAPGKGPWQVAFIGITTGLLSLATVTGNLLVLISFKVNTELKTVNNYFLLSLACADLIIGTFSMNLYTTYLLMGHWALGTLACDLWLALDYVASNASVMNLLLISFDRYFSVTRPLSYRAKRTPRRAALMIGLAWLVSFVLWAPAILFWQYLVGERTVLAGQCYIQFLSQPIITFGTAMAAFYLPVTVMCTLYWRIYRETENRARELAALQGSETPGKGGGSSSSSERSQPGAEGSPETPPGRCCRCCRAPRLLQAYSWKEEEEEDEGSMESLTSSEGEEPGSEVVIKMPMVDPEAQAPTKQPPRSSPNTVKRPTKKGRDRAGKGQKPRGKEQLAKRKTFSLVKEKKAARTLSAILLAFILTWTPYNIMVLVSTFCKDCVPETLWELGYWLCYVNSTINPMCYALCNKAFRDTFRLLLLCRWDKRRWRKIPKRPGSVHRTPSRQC

Q: How did the Activity turn out when O=C(NCCCCCCBr)c1cn(Cc2ccccc2)c2cc(Cl)c(F)cc2c1=O was run?
A: inactive

Q: For O=C(NCCCCBr)c1cn(Cc2ccccc2)c2cc(Cl)c(F)cc2c1=O, which Activity is on record?
A: inactive

Q: Which Activity does the source give for COc1ccc(Cn2cc(C(=O)O)c(=O)c3ccccc32)cc1 here?
A: inactive

Q: For O=C(NCCCCBr)c1cn(Cc2ccccc2)c2cc(Br)ccc2c1=O, which Activity is on record?
A: inactive

Q: How did the Activity turn out when O=C(NCCCCBr)c1cn(Cc2ccccc2)c2c(F)cccc2c1=O was run?
A: inactive

Q: For O=C(NCCCCCCBr)c1cn(Cc2ccccc2)c2c(F)cccc2c1=O, which Activity is on record?
A: inactive

Q: With O=C(NCCCCCCBr)c1cn(Cc2ccccc2)c2cc(Br)ccc2c1=O as the molecule, how does the Activity read?
A: inactive

biological target: T1, Muscarinic acetylcholine receptor M1 (Homo sapiens); assay: Displacement of [3H]NMS from human muscarinic M1 acetylcholine receptor expressed in CHO cell membranes by radioligand binding assay; conditions: not given

Q: O=C(NCCCCBr)c1cn(Cc2ccccc2)c2c(F)cccc2c1=O was tested. Which Imax did it give?
A: 3 µM

Q: O=C(NCCCCCCBr)c1cn(Cc2ccccc2)c2c(F)cccc2c1=O was tested. Which Imax did it give?
A: 10 µM

biological target: T1, Muscarinic acetylcholine receptor M1 (Homo sapiens); assay: Partial agonist activity at human muscarinic M1 acetylcholine receptor expressed in CHO cells assessed as increase in IP1 accumulation at 10 uM incubated for 30 mins by FRET based HTRF assay; assay type: functional, cell-based; conditions: not given

Q: How did the Activity turn out when O=C(NCCCCCCBr)c1cn(Cc2ccccc2)c2cc(Cl)c(F)cc2c1=O was run?
A: inactive

Q: For O=C(NCCCCBr)c1cn(Cc2ccccc2)c2cc(Cl)c(F)cc2c1=O, which Activity is on record?
A: inactive

Q: Which Activity does the source give for COc1ccc(Cn2cc(C(=O)O)c(=O)c3ccccc32)cc1 here?
A: Active

Q: How did the Activity turn out when O=C(NCCCCBr)c1cn(Cc2ccccc2)c2cc(Br)ccc2c1=O was run?
A: inactive

Q: Which Activity does the source give for O=C(NCCCCBr)c1cn(Cc2ccccc2)c2c(F)cccc2c1=O here?
A: inactive

Q: How did the Activity turn out when O=C(NCCCCCCBr)c1cn(Cc2ccccc2)c2c(F)cccc2c1=O was run?
A: inactive

Q: For O=C(NCCCCCCBr)c1cn(Cc2ccccc2)c2cc(Br)ccc2c1=O, which Activity is on record?
A: inactive

biological target: T1, Muscarinic acetylcholine receptor M1 (Homo sapiens); assay: Partial agonist activity at human muscarinic M1 acetylcholine receptor expressed in CHO cells assessed as increase in IP1 accumulation at 1 uM incubated for 30 mins by FRET based HTRF assay relative to 100 uM acetylcholine; assay type: functional, cell-based; conditions: not given

Q: Which Emax does the source give for CCCCCCCCOc1ccc2cc(Cn3cc(C(=O)O)c(=O)c4cccc(F)c43)ccc2c1 here?
A: 1%

biological target: T1, Muscarinic acetylcholine receptor M1 (Homo sapiens); assay: Allosteric inhibition of [3H]NMS dissociation from human muscarinic M1 acetylcholine receptor expressed in CHO cell membranes assessed as half life of dissociation by radioligand binding assay; conditions: not given

Q: For CCCCCCCCN1CCC(n2c(=O)[nH]c3ccccc32)CC1, which T1/2 is on record?
A: 8.9 min

biological target: T2, Muscarinic acetylcholine receptor M1 (Homo sapiens, UniProt P11229); assay: biochemical; conditions: not given
T2 sequence (P11229 whole entry): T1 sequence (whole entry)

Q: How did the Kd turn out when C[N+](C)(CC#CCOC1=NOCC1)CCCCNC(=O)c1cn(Cc2ccccc2)c2c(F)cccc2c1=O was run?
A: 151 nM

biological target: T1, Muscarinic acetylcholine receptor M1 (Homo sapiens); assay: Modulator activity at human muscarinic M1 acetylcholine receptor expressed in CHO cell membranes assessed as induction of left shift of acetylcholine-induced inhibition of [3H]NMS binding by radioligand binding assay; conditions: not given

Q: Which inhibition does the source give for C[N+](C)(CC#CCOC1=NOCC1)CCCCNC(=O)c1cn(Cc2ccccc2)c2c(F)cccc2c1=O here?
A: inactive

Q: Which inhibition does the source give for O=C(NCCCCBr)c1cn(Cc2ccccc2)c2c(F)cccc2c1=O here?
A: inactive

Q: With O=C(NCCCCCCBr)c1cn(Cc2ccccc2)c2c(F)cccc2c1=O as the molecule, how does the inhibition read?
A: inactive

biological target: T1, Muscarinic acetylcholine receptor M1 (Homo sapiens); assay: Allosteric inhibition of [3H]NMS dissociation from human muscarinic M1 acetylcholine receptor expressed in CHO cell membranes by radioligand binding assay; conditions: not given

Q: For C[N+](C)(CC#CCOC1=NOCC1)CCCCNC(=O)c1cn(Cc2ccccc2)c2c(F)cccc2c1=O, which pEC0.5 is on record?
A: 6.04

Q: CCCCCCCCN1CCC(n2c(=O)[nH]c3ccccc32)CC1 was tested. Which pEC0.5 did it give?
A: 5.94

Q: With O=C(NCCCCBr)c1cn(Cc2ccccc2)c2c(F)cccc2c1=O as the molecule, how does the pEC0.5 read?
A: 5.9

Q: For O=C(NCCCCCCBr)c1cn(Cc2ccccc2)c2c(F)cccc2c1=O, which pEC0.5 is on record?
A: 6.15

biological target: T1, Muscarinic acetylcholine receptor M1 (Homo sapiens); assay: not given; conditions: CHO

Q: For C[N+](C)(CC#CCOC1=NOCC1)CCCCNC(=O)c1cn(Cc2ccccc2)c2c(F)cccc2c1=O, which pKA is on record?
A: 6.64

biological target: T1, Muscarinic acetylcholine receptor M1 (Homo sapiens); assay: Partial agonist activity at human muscarinic M1 acetylcholine receptor expressed in CHO cells assessed as increase in IP1 accumulation at 10 uM incubated for 30 mins in presence of 1 uM Gq protein inhibitor UBO-QIC by FRET based HTRF assay; assay type: functional, cell-based; conditions: not given

Q: With C[N+](C)(CC#CCOC1=NOCC1)CCCCNC(=O)c1cn(Cc2ccccc2)c2c(F)cccc2c1=O as the molecule, how does the Activity read?
A: inactive

biological target: T1, Muscarinic acetylcholine receptor M1 (Homo sapiens); assay: Partial agonist activity at human muscarinic M1 acetylcholine receptor expressed in CHO cells assessed as increase in IP1 accumulation at 10 uM incubated for 30 mins in presence of 100 ng/ml Gi protein inhibitor PTX by FRET based HTRF assay; assay type: functional, cell-based; conditions: not given

Q: For CCCCCCCCN1CCC(n2c(=O)[nH]c3ccccc32)CC1, which Activity is on record?
A: Active

Q: How did the Activity turn out when CCCCCCCCOc1ccc2cc(Cn3cc(C(=O)O)c(=O)c4cccc(F)c43)ccc2c1 was run?
A: Active

biological target: T1, Muscarinic acetylcholine receptor M1 (Homo sapiens); assay: not given; conditions: CHO; remark: another data set of the same source

Q: How did the pKb turn out when C[N+](C)(CC#CCOC1=NOCC1)CCCCNC(=O)c1cn(Cc2ccccc2)c2c(F)cccc2c1=O was run?
A: 6.92

biological target: T1, Muscarinic acetylcholine receptor M1 (Homo sapiens); assay: Allosteric inhibition of [3H]NMS dissociation rate constant k_1 from human muscarinic M1 acetylcholine receptor expressed in CHO cell membranes by radioligand binding assay; conditions: concentration not given here

Q: Which inhibition does the source give for C[N+](C)(CC#CCOC1=NOCC1)CCCCNC(=O)c1cn(Cc2ccccc2)c2c(F)cccc2c1=O here?
A: 18%

Q: How did the inhibition turn out when CCCCCCCCN1CCC(n2c(=O)[nH]c3ccccc32)CC1 was run?
A: 36%

Q: O=C(NCCCCBr)c1cn(Cc2ccccc2)c2c(F)cccc2c1=O was tested. Which inhibition did it give?
A: 35%

Q: How did the inhibition turn out when O=C(NCCCCCCBr)c1cn(Cc2ccccc2)c2c(F)cccc2c1=O was run?
A: 47%

biological target: T1, Muscarinic acetylcholine receptor M1 (Homo sapiens); assay: Displacement of [3H]NMS from human muscarinic M1 acetylcholine receptor expressed in CHO cell membranes at 1 uM by radioligand binding assay; conditions: not given

Q: Which inhibition does the source give for O=C(NCCCCCCBr)c1cn(Cc2ccccc2)c2cc(Cl)c(F)cc2c1=O here?
A: Active

Q: Which inhibition does the source give for O=C(NCCCCCCBr)c1cn(Cc2ccccc2)c2cc(Br)ccc2c1=O here?
A: Active

biological target: T2, Muscarinic acetylcholine receptor M1; assay: not given; conditions: not given

Q: With C[N+](C)(CC#CCOC1=NOCC1)CCCCNC(=O)c1cn(Cc2ccccc2)c2c(F)cccc2c1=O as the molecule, how does the EC50 read?
A: 57.5 nM

Q: CCCCCCCCN1CCC(n2c(=O)[nH]c3ccccc32)CC1 was tested. Which EC50 did it give?
A: 537 nM

biological target: T1, Muscarinic acetylcholine receptor M1 (Homo sapiens); assay: Modulator activity at human muscarinic M1 acetylcholine receptor expressed in CHO cell membranes assessed as reduction in pIC50 for acetylcholine-induced inhibition of [3H]NMS binding by radioligand binding assay; conditions: not given

Q: How did the inhibition turn out when C[N+](C)(CC#CCOC1=NOCC1)CCCCNC(=O)c1cn(Cc2ccccc2)c2c(F)cccc2c1=O was run?
A: Active

Q: Which inhibition does the source give for O=C(NCCCCBr)c1cn(Cc2ccccc2)c2c(F)cccc2c1=O here?
A: Active

Q: With O=C(NCCCCCCBr)c1cn(Cc2ccccc2)c2c(F)cccc2c1=O as the molecule, how does the inhibition read?
A: Active

biological target: T1, Muscarinic acetylcholine receptor M1 (Homo sapiens); assay: Allosteric inhibition of [3H]NMS dissociation from human muscarinic M1 acetylcholine receptor expressed in CHO cell membranes assessed as […] in half life of dissociation by radioligand binding assay; conditions: not given

Q: For CCCCCCCCN1CCC(n2c(=O)[nH]c3ccccc32)CC1, which fold change (FC) is on record?
A: 3
